This passage reports T/C results from PubChem BioAssay AID330 (DTP/NCI, 2004).

This assay concerns P388 leukemia ip, CD2F1 mice, survival T/C. Kind of assay: NCI In Vivo Anticancer Drug Screen. Data for tumor model P388 Leukemia (intraperitoneal) in CD2F1 (CDF1) mice. The note with it: endpoint: median survival time, higher = longer survival. The method in brief:
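Mice carrying the transplanted tumor received test compound or vehicle. Survival was recorded in each group, and the value is the treated-group measurement divided by that of the vehicle-treated control group.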

The mark [1] stands for this setting: dose: 25.0 mg/kg/injection, schedule: Q01DX009 (ip), vehicle: saline.
Setting [2] is: dose: 50.0 mg/kg/injection, schedule: Q01DX009 (ip), vehicle: saline.
[3] abbreviates: dose: 100.0 mg/kg/injection, schedule: Q01DX009 (ip), vehicle: saline.
Setting [4] is: dose: 200.0 mg/kg/injection, schedule: Q01DX009 (ip), vehicle: saline.
The mark [5] stands for this setting: dose: 100.0 mg/kg/injection, schedule: Q01DX009 (ip), vehicle: saline with Tween-80.
[6] abbreviates: dose: 200.0 mg/kg/injection, schedule: Q01DX009 (ip), vehicle: saline with Tween-80.
Where [7] appears, read: dose: 50.0 mg/kg/injection, schedule: Q01DX009 (ip), vehicle: suspension in saline.
The mark [8] stands for this setting: dose: 100.0 mg/kg/injection, schedule: Q01DX009 (ip), vehicle: suspension in saline.
[9] abbreviates: dose: 60.0 mg/kg/injection, schedule: Q01DX005 (ip), vehicle: saline with Tween-80.
The mark [10] stands for this setting: dose: 120.0 mg/kg/injection, schedule: Q01DX005 (ip), vehicle: saline with Tween-80.
[11] abbreviates: dose: 240.0 mg/kg/injection, schedule: Q01DX005 (ip), vehicle: saline with Tween-80.
Setting [12] is: dose: 50.0 mg/kg/injection, schedule: Q01DX005 (ip), vehicle: Klucel (hydroxypropylcellulose) (HPC).
The mark [13] stands for this setting: dose: 100.0 mg/kg/injection, schedule: Q01DX005 (ip), vehicle: Klucel (hydroxypropylcellulose) (HPC).
[14] abbreviates: dose: 50.0 mg/kg/injection, schedule: Q01DX009 (ip), vehicle: saline with Tween-80.

Inconclusive results and toxic doses are left out.

As for `O=P1(NCCCl)OCCCN1CCCl` (stereo unspecified), the T/C is 184 % of control under setting [1]; 157 % of control (dose: 30.0 mg/kg/injection, schedule: Q01DX005 (iv), vehicle: saline); 270 % of control under setting [2]; 195 % of control (dose: 60.0 mg/kg/injection, schedule: Q01DX005 (ip), vehicle: saline); 186 % of control (dose: 60.0 mg/kg/injection, schedule: Q01DX005 (iv), vehicle: saline); 282 % of control under setting [3]. Further, the T/C was 280 % of control (dose: 120.0 mg/kg/injection, schedule: Q01DX005 (ip), vehicle: saline); 241 % of control (dose: 120.0 mg/kg/injection, schedule: Q01DX005 (iv), vehicle: saline); 111 % of control under setting [4]; 280 % of control (dose: 240.0 mg/kg/injection, schedule: Q01DX005 (ip), vehicle: saline); 252 % of control (dose: 240.0 mg/kg/injection, schedule: Q01DX005 (iv), vehicle: saline); 233 % of control (dose: 289.0 mg/kg/injection, schedule: Q01DX001 (ip), vehicle: saline). Moreover, the T/C reads like this: (dose: 431.0 mg/kg/injection, schedule: Q01DX001 (ip), vehicle: saline) 582 % of control; (dose: 538.0 mg/kg/injection, schedule: Q01DX001 (ip), vehicle: saline) 582 % of control; (dose: 646.0 mg/kg/injection, schedule: Q01DX001 (ip), vehicle: saline) 242 % of control.
As to `CC(=O)OCc1cc(-c2nc3ccccc3[nH]c2=O)nn1-c1ccc(Cl)cc1`, the T/C is, setting by setting: (dose: 25.0 mg/kg/injection, schedule: Q01DX005 (ip), vehicle: distilled water + alcohol) 93 % of control; (dose: 50.0 mg/kg/injection, schedule: Q01DX005 (ip), vehicle: distilled water + alcohol) 90 % of control; (dose: 100.0 mg/kg/injection, schedule: Q01DX005 (ip), vehicle: distilled water + alcohol) 86 % of control; (dose: 200.0 mg/kg/injection, schedule: Q01DX005 (ip), vehicle: distilled water + alcohol) 87 % of control.
`CCOC(=O)c1nc(Cl)cn(O)c1=N`: the T/C runs as follows: under setting [5], 104 % of control; under setting [6], 99 % of control; (dose: 400.0 mg/kg/injection, schedule: Q01DX009 (ip), vehicle: saline with Tween-80) 93 % of control.
For `S=C(Nc1cc(Cl)c(Cl)cc1Cl)SCc1ccccc1`, the T/C was 93 % of control under setting [7] and 93 % of control under setting [8].
As for `N#C/C=C1/C=CC(O)CC1OC1OC(CO)C(O)C(O)C1O` (stereo unspecified), the T/C is 102 % of control (dose: 3.0 mg/kg/injection, schedule: Q01DX009 (ip), vehicle: saline); 101 % of control (dose: 6.0 mg/kg/injection, schedule: Q01DX009 (ip), vehicle: saline); 102 % of control (dose: 12.0 mg/kg/injection, schedule: Q01DX009 (ip), vehicle: saline); 104 % of control (dose: 24.0 mg/kg/injection, schedule: Q01DX009 (ip), vehicle: saline).
As for `c1cncc(C(Nc2cccc3cccnc23)Nc2cccc3cccnc23)c1`, the T/C under setting [9] was 94 % of control, the T/C under setting [10] was 91 % of control and the T/C under setting [11] was 90 % of control.
`CCOC1=NC2C(O1)C1C3C2C13` (stereo unspecified): the T/C (dose: 50.0 mg/kg/injection, schedule: Q01DX005 (ip), vehicle: saline with Tween-80) is 103 % of control; the T/C (dose: 100.0 mg/kg/injection, schedule: Q01DX005 (ip), vehicle: saline with Tween-80) was 105 % of control; the T/C (dose: 200.0 mg/kg/injection, schedule: Q01DX005 (ip), vehicle: saline with Tween-80) is 105 % of control.
Consider `O=C(O)CC(O)(CC(=O)O)C(=O)O.O=C(O)CC(O)(CC(=O)O)C(=O)O.[O]=[Mo]1[O][Mo](=[O])[O]1`, for which, under setting [1], the T/C was 93 % of control.
As to `CN=C(c1ccc(NC(=O)c2cccc(C(=O)Nc3ccc(C(=NC)N(C)C4CCCCC4)cc3)c2)cc1)N(C)C1CCCCC1`, the T/C by setting is: (dose: 1.56 mg/kg/injection, schedule: Q01DX005 (ip), vehicle: Klucel (hydroxypropylcellulose) (HPC)) 104 % of control; (dose: 3.12 mg/kg/injection, schedule: Q01DX005 (ip), vehicle: Klucel (hydroxypropylcellulose) (HPC)) 102 % of control.
As to `Nc1c(Cl)ccc2cccnc12`, the T/C is, setting by setting: (dose: 50.0 mg/kg/injection, schedule: Q01DX005 (ip), vehicle: saline + Tween-80 + alcohol) 107 % of control; (dose: 100.0 mg/kg/injection, schedule: Q01DX005 (ip), vehicle: saline + Tween-80 + alcohol) 107 % of control; (dose: 200.0 mg/kg/injection, schedule: Q01DX005 (ip), vehicle: saline + Tween-80 + alcohol) 110 % of control.
Consider `O=C(c1ccccc1)[C@@]12COc3ccccc3[C@@H]1ON=C2c1ccccc1`, for which the T/C under setting [12] was 89 % of control; the T/C under setting [13] was 88 % of control; the T/C (dose: 200.0 mg/kg/injection, schedule: Q01DX005 (ip), vehicle: Klucel (hydroxypropylcellulose) (HPC)) is 91 % of control.
For `CC(=O)N(O)C1CCCCC1`, the T/C by setting is: under setting [14], 101 % of control; under setting [2], 112 % of control; under setting [5], 101 % of control; under setting [3], 97 % of control; under setting [6], 103 % of control; under setting [4], 100 % of control.
On to `NC(Cc1ccccc1)P(=O)(O)O` (stereo unspecified), for which the T/C is 97 % of control (dose: 25.0 mg/kg/injection, schedule: Q01DX009 (ip), vehicle: suspension in saline); 99 % of control under setting [7]; 99 % of control under setting [8]; 97 % of control (dose: 200.0 mg/kg/injection, schedule: Q01DX009 (ip), vehicle: suspension in saline).
With `CN1CCN(C2=NS(=O)(=O)c3cc(Cl)ccc3N2)CC1`, the T/C is 104 % of control under setting [14], 104 % of control under setting [5] and 91 % of control under setting [6].
As to `O=C(NC(Cc1c[nH]c2ccccc12)C(=O)O)OCC1c2ccccc2-c2ccccc21` (stereo unspecified), the T/C by setting is: under setting [12], 100 % of control; under setting [13], 95 % of control.
Turning to `COC1CCC(O)C(C(=O)CN(C)C)C1` (stereo unspecified), the T/C was 101 % of control (dose: 50.0 mg/kg/injection, schedule: Q01DX005 (ip), vehicle: saline); 99 % of control (dose: 100.0 mg/kg/injection, schedule: Q01DX005 (ip), vehicle: saline); 99 % of control (dose: 200.0 mg/kg/injection, schedule: Q01DX005 (ip), vehicle: saline).
For `CCN(CC)c1ccc2c(-c3ccccc3C(=O)O)c3ccc(=[N+](CC)CC)cc-3oc2c1`, the T/C is 104 % of control (dose: 5.0 mg/kg/injection, schedule: Q01DX009 (ip), vehicle: saline with Tween-80); 104 % of control (dose: 10.0 mg/kg/injection, schedule: Q01DX009 (ip), vehicle: saline with Tween-80); 100 % of control (dose: 20.0 mg/kg/injection, schedule: Q01DX009 (ip), vehicle: saline with Tween-80).
Take `COc1cc2c(c(OC)c1OC)CCC1C(=O)NN=C21` (stereo unspecified): the T/C reads like this: (dose: 12.5 mg/kg/injection, schedule: Q04DX003 (ip), vehicle: Klucel (hydroxypropylcellulose) (HPC)) 111 % of control; (dose: 25.0 mg/kg/injection, schedule: Q04DX003 (ip), vehicle: Klucel (hydroxypropylcellulose) (HPC)) 104 % of control; (dose: 50.0 mg/kg/injection, schedule: Q04DX003 (ip), vehicle: Klucel (hydroxypropylcellulose) (HPC)) 111 % of control.
Take `CCOC(=O)c1ccc(NC(=O)Nc2ccc(Nc3ccccc3)cc2)cc1`: the T/C runs as follows: (dose: 60.0 mg/kg/injection, schedule: Q01DX005 (ip), vehicle: Klucel (hydroxypropylcellulose) (HPC)) 95 % of control; (dose: 120.0 mg/kg/injection, schedule: Q01DX005 (ip), vehicle: Klucel (hydroxypropylcellulose) (HPC)) 92 % of control; (dose: 240.0 mg/kg/injection, schedule: Q01DX005 (ip), vehicle: Klucel (hydroxypropylcellulose) (HPC)) 88 % of control.
Turning to `NNC(=O)CC(NN)c1ccccc1O` (stereo unspecified), the T/C under setting [9] was 104 % of control, the T/C under setting [10] is 105 % of control and the T/C under setting [11] is 105 % of control.
As to `COc1ccc(SS(=O)c2ccccc2)cc1` (stereo unspecified), the T/C is 105 % of control (dose: 100.0 mg/kg/injection, schedule: Q04DX002 (ip), vehicle: saline with Tween-80); 111 % of control (dose: 200.0 mg/kg/injection, schedule: Q04DX002 (ip), vehicle: saline with Tween-80); 108 % of control (dose: 400.0 mg/kg/injection, schedule: Q04DX002 (ip), vehicle: saline with Tween-80).
